Measurements: ChEMBL document CHEMBL3045786, “Insect antifeedant activity of tetranortriterpenoids from the Rutales. A perusal of structural relations” (2002)

System: Spodoptera litura
Assay: Feeding index against larvae of Spodoptera litura in castor leaves =

| Compound | PFI |
| --- | --- |
| COC(=O)C[C@H]1[C@]2(C)C3=C(C)[C@H](c4ccoc4)C[C@H]3O[C@@H]2[C@H](O)[C@@H]2[C@]1(C)C(=O)C=C[C@@]2(C)C(=O)OC [DEACETYLNIMBIN] | 34.7% |
| CC(=O)O[C@@H]1C[C@H]2C(C)(C)C(=O)C=C[C@]2(C)[C@H]2CC[C@@]3(C)[C@H](c4ccoc4)C(=O)[C@H]4O[C@]43[C@@]21C [EPOXYAZADIRADIONE] | 50.4% |
| CC1(C)C(=O)CC[C@@]2(C)C1=C(O)C(=O)[C@]1(C)[C@@H]2CC[C@@]2(C)[C@H](c3ccoc3)C[C@H]3O[C@]321 [DIHYDROCEDRELONE] | 50.5% |
| CC1(C)C(=O)C=C[C@@]2(C)C1=C(O)C(=O)[C@]1(C)[C@@H]2CC[C@@]2(C)[C@H](C3=CO[C@@H]4O[C@H]34)C[C@H]3O[C@]321 [CEDRELONE-22-EPOXIDE] | 44.2% |
| CC(=O)OC1[C@H](O)[C@H]2C(C)(C)C(=O)CC[C@]2(C)[C@H]2CC[C@]3(C)C(=CC[C@H]3c3ccoc3)[C@]12C (some centres undefined) [ISOMELDENIN] | 60.6% |
| C/C=C(\C)C(=O)O[C@H]1C[C@@H](O)[C@@]2(C)CO[C@H]3[C@H]4O[C@@H]5C[C@@H](C6=CC(O)OC6=O)C(C)=C5[C@@]4(C)[C@H](CC(=O)OC)[C@]1(C)[C@@H]32 (some centres undefined) [DESACETYL SALANNOLIDE] | 28.44% |
| CC(=O)O[C@@H]1[C@H](O)[C@H]2C(C)(C)C(=O)CC[C@]2(C)[C@H]2CC[C@]3(C)C(=CC[C@H]3C3=CC(O)OC3=O)[C@]12C (some centres undefined) [ISOMELDENIN PP] | 28.3% |
| CC(=O)O[C@@H]1C[C@H]2C(C)(C)C(=O)C=C[C@]2(C)[C@H]2CC[C@@]3(C)[C@H](C4=CC(O)OC4=O)C(=O)[C@H]4O[C@]43[C@@]21C (some centres undefined) [EPOXY AZADIRADIONE PP] | 29.4% |
| CC(=O)O[C@@H]1C[C@H]2C(C)(C)C(=O)C=C[C@]2(C)[C@H]2CC[C@]3(C)C(=CC(=O)[C@H]3C3=CC(O)OC3=O)[C@@]21C (some centres undefined) [AZADIRADIONE PP] | 34.7% |
| C/C=C(\C)C(=O)O[C@H]1C[C@@H](O)[C@@]2(C)CO[C@H]3[C@H]4O[C@@H]5C[C@@H](C6=CCOC6=O)C(C)=C5[C@@]4(C)[C@H](CC(=O)OC)[C@]1(C)[C@@H]32 [DESACETYLSALANNOBUTYROLACTONE] | 40.35% |
| COC(=O)[C@H]1OC[C@]23[C@@H]1[C@](C)([C@]14O[C@@]1(C)[C@H]1C[C@@H]4O[C@@H]4OC=C[C@@]41O)[C@H](O)[C@@H]1OC[C@](C(=O)OC)([C@H](O)C[C@@H]2O)[C@H]13 [AZADIRACHTOL] | 6.1% |
| CC(=O)O[C@@H]1[C@H](O)[C@H]2C(C)(C)C(=O)C=C[C@]2(C)[C@H]2CC[C@]3(C)C(=CC[C@H]3c3ccoc3)[C@]12C [NIMONOL] | 47.3% |
| COC1=C2C(C)(C)C(=O)[C@H]3O[C@H]3[C@]2(C)[C@H]2CC[C@@]3(C)[C@H](c4ccoc4)C[C@H]4O[C@]43[C@]2(C)C1=O [METHYL ETHER CEDRELONEEPOXIDE] | 54% |
| CC(=O)O[C@@H]1C[C@H]2C(C)(C)CC(=O)C=C[C@]2(C)[C@H]2CC[C@]3(C)C(=CC[C@H]3c3ccoc3)[C@@]21C [HOMOAZADIRADIONE] | 60% |
| C/C=C(\C)C(=O)O[C@@H]1[C@@H]2C=C3[C@@H]4CC(=O)O[C@@H](c5ccoc5)[C@]4(C)CC[C@@H]3[C@@](C)(C2=O)[C@@H]([C@@H](O)C(=O)OC)C1(C)C [SWIETENINE] | 49.1% |
| C/C=C(\C)C(=O)O[C@H]1CC(=O)[C@@]2(C)CO[C@H]3[C@H]4O[C@@H]5C[C@@H](c6ccoc6)C(C)=C5[C@@]4(C)[C@H](CC(=O)OC)[C@]1(C)[C@@H]32 [3-OXOSALANNIN] | 42.9% |
| C/C=C(\C)C(=O)O[C@H]1C[C@@H](OC(C)=O)[C@@]2(C)CO[C@H]3[C@@H](O)[C@@](C)([C@]45O[C@@]4(C)[C@H]4C[C@@H]5O[C@@H]5OC=C[C@@]54O)[C@@H]4[C@H](O)OC[C@@]14[C@@H]32 [AZADIRACHTIN-I] | 32.2% |
| C/C=C(\C)C(=O)O[C@H]1C[C@@H](OC(C)=O)[C@@]2(C)CO[C@H]3[C@H]4O[C@@H]5C[C@@H](C6=CC(O)OC6=O)C(C)=C5[C@@]4(C)[C@H](CC(=O)OC)[C@]1(C)[C@@H]32 (some centres undefined) [SALANNOLIDE] | 26.3% |
| COC(=O)C[C@H]1[C@]2(C)C3=C(C)[C@H](C4=CCOC4=O)C[C@H]3O[C@@H]2[C@H](OC(C)=O)[C@@H]2[C@]1(C)C(=O)C=C[C@@]2(C)C(=O)OC [NIMBIN MW] | 42.9% |
| CC(=O)O[C@@H]1[C@H](O)[C@H]2C(C)(C)C(=O)C=C[C@]2(C)[C@H]2CC[C@@]3(C)[C@H](C45CC(O)OC4O5)C[C@@H]4O[C@@]43[C@]12C (some centres undefined) [NIMONOL PP2] | 15.8% |
| CC(=O)OC1=C2C(C)(C)C(=O)C=C[C@]2(C)[C@H]2CC[C@@]3(C)[C@H](c4ccoc4)C[C@H]4O[C@]43[C@]2(C)C1=O [CEDRELONE ACETATE] | 55% |
| COC(=O)C[C@H]1[C@]2(C)C3=C(C)[C@H](C4=CCOC4=O)C[C@H]3O[C@@H]2[C@H](O)[C@@H]2[C@]1(C)C(=O)C=C[C@@]2(C)C(=O)OC [DESACETYLNIMBIN MW] | 35.1% |

| Compound | PFI |
| --- | --- |
| C/C=C(\C)C(=O)O[C@H]1C[C@@H](OC(C)=O)[C@@]2(C)CO[C@H]3[C@H]4O[C@@H]5CC(C6=CC(=O)OC6O)=C(C)C5[C@@]4(C)[C@H](CC(=O)OC)[C@]1(C)[C@@H]32 (some centres undefined) [SALANNIN PP1] | 29.1% |
| CC(=O)O[C@@H]1C[C@@H](O)[C@@]2(C)[C@@H](C[C@@H](OC(C)=O)[C@@]3(C)C4=CC[C@@H](C5=C[C@@H](CC(C)C)O[C@@H]5O)[C@]4(C)C[C@@H](O)[C@@H]32)C1(C)C [3R-ACETOXY-1R-HYDROXYAZADIRACHTOL] | 4.2% |
| CC1(C)C(=O)[C@H]2O[C@H]2[C@@]2(C)C1=C(O)C(=O)[C@]1(C)[C@@H]2CC[C@@]2(C)[C@H](c3ccoc3)C[C@H]3O[C@]321 [CEDRELONE EPOXIDE] | 43.5% |
| C/C=C(/C)C(=O)O[C@H]1C[C@@H](OC(C)=O)[C@@]2(C)CO[C@H]3[C@H]4O[C@@H]5C[C@@H](c6ccoc6)C(C)=C5[C@@]4(C)[C@H](CC(=O)OC)[C@]1(C)[C@@H]32 [SALANNIN] | 36.3% |
| CC1(C)C(=O)C=C[C@@]2(C)C1=C(O)C(=O)[C@@]1(C)C3=CC[C@@H](c4ccoc4)[C@]3(C)CC[C@@H]12 [DESEPOXYCEDRELONE] | 55.3% |
| CC(=O)O[C@@H]1C[C@H]2C(C)(C)C(=O)C=C[C@]2(C)[C@H]2CC[C@@]3(C)[C@H](c4ccoc4)OC(=O)[C@H]4O[C@]43[C@@]21C [GEDUNIN] | 37.3% |
| C/C=C(\C)C(=O)O[C@@H]1[C@@H]2C=C3[C@@H]4CC(=O)O[C@@H](C5=CC(O)OC5=O)[C@]4(C)CC[C@@H]3[C@@](C)(C2=O)[C@@H]([C@@H](O)C(=O)OC)C1(C)C (some centres undefined) [SWIETENINE PP] | 40.2% |
| CC(=O)O[C@@H]1[C@H](O)[C@H]2C(C)(C)C(=O)C=C[C@]2(C)[C@H]2CC[C@@]3(C)[C@H](C4=CC(O)OC4=O)C[C@@H]4O[C@@]43[C@]12C (some centres undefined) [NIMONOLIDE] | 21.3% |
| CC(=O)O[C@@H]1[C@H](O)[C@H]2C(C)(C)C(=O)C=C[C@]2(C)[C@H]2CC[C@]3(C)C(=CC[C@H]3C3=CCOC3=O)[C@]12C [NIMONOL MW] | 44.2% |
| COC(=O)C[C@H]1[C@]2(C)C3=C(C)[C@H](C4=CC(O)OC4=O)C[C@H]3O[C@@H]2[C@H](OC(C)=O)[C@@H]2[C@]1(C)C(=O)C=C[C@@]2(C)C(=O)OC (some centres undefined) [NIMBINOLIDE] | 26.7% |
| COC(=O)C[C@H]1[C@]2(C)C3=C(C)[C@H](c4ccoc4)C[C@H]3O[C@@H]2C(=O)[C@@H]2[C@]1(C)C(=O)C=C[C@@]2(C)C(=O)OC [6-OXONIMBIN] | 42.3% |
| COC1=C2C(C)(C)C(=O)CC[C@]2(C)[C@H]2CC[C@@]3(C)[C@H](c4ccoc4)C[C@H]4O[C@]43[C@]2(C)C1=O [DIHYDROCEDRELONE METHYL ETHER] | 56.5% |
| COC(=O)C[C@H]1[C@]2(C)C3=C(C)[C@H](c4ccoc4)C[C@H]3O[C@@H]2[C@H](OC(C)=O)[C@@H]2[C@]1(C)C(=O)C=C[C@@]2(C)C(=O)OC [NIMBIN] | 33.7% |
| C=C1[C@@H]2CC[C@@]3(C)[C@H](c4ccoc4)OC(=O)C[C@]13O[C@H]1CC(=O)C(C)(C)[C@H](CC(=O)OC)[C@]12C [METHYLANGOLENSATE] | 65.3% |
| C/C=C(\C)C(=O)O[C@H]1C[C@@H](OC(C)=O)[C@@]2(C)CO[C@@H]3[C@@H](O)[C@@](C)([C@]45O[C@@]4(C)[C@H]4C[C@@H]5O[C@@H]5OC=C[C@@]54O)[C@H]4[C@]1(CO[C@]4(O)C(=O)OC)[C@@H]32 [AZADIRACHTIN-D] | 28.9% |
| C/C=C(\C)C(=O)O[C@H]1C[C@@H](OC(C)=O)[C@@]2(C(=O)OC)CO[C@H]3[C@@H](O)[C@@](C)([C@]45O[C@@]4(C)[C@H]4C[C@@H]5O[C@@H]5OC=C[C@@]54O)[C@@H]4[C@H](O)OC[C@@]14[C@@H]32 [AZADIRACHTIN H] | 30.5% |
| COC(=O)C[C@H]1[C@]2(C)C3=C(C)[C@H](C4=CC(=O)OC4O)C[C@H]3O[C@@H]2[C@H](OC(C)=O)[C@@H]2[C@]1(C)C(=O)C=C[C@@]2(C)C(=O)OC (some centres undefined) [NIMBIN PP] | 19.9% |
| CC(=O)O[C@@H]1C[C@H]2C(C)(C)C(=O)C=C[C@]2(C)[C@H]2CC[C@]3(C)C(=CC(=O)[C@H]3c3ccoc3)[C@@]21C [AZADIRADIONE] | 35.5% |
| C/C=C(\C)C(=O)O[C@H]1C[C@@H](O)[C@@]2(C)CO[C@H]3[C@H]4O[C@@H]5C[C@@H](c6ccoc6)C(C)=C5[C@@]4(C)[C@H](CC(=O)OC)[C@]1(C)[C@@H]32 [DESACETYL SALANNIN] | 44.67% |
| CC1(C)C(=O)C=C[C@@]2(C)C1=C(O)C(=O)[C@]1(C)[C@@H]2CC[C@@]2(C)[C@H](C3=CC(O)OC3=O)C[C@H]3O[C@]321 (some centres undefined) [CEDRELONE PP-OH] | 22.4% |
| C/C=C(\C)C(=O)O[C@H]1C[C@@H](OC(C)=O)[C@@]2(C(=O)OC)CO[C@H]3[C@@H](O)[C@@](C)([C@]45O[C@@]4(C)[C@H]4C[C@@H]5O[C@@H]5OC=C[C@@]54O)[C@H]4[C@]1(CO[C@]4(O)C(=O)OC)[C@@H]32 [AZADIRACTIN] | 27.5% |
| CC(=O)O[C@@H]1[C@H](O)[C@H]2C(C)(C)C(=O)C=C[C@]2(C)[C@H]2CC[C@@]3(C)[C@H](c4ccoc4)C[C@H]4O[C@]43[C@]12C [EPOXY NIMONOL] | 32% |
